Experimental data from patent US7862807B2, “Dendrimers as molecular translocators” (University of California, San Diego, priority 2002, dated 2011).

Experiments:
[1] = tested on: HeLa S3 human epithelioid cervical carcinoma cells; test: Cellular uptake of fluorescein-labeled dendrimers quantified by flow cytometry (FACS); format: cell-based; conditions: for saturation of uptake reached with increasing concentration: concentration increased up to 50 μM; for delivery to HeLa S3 cells (in words): 250 nM to 50 μM; for Percentage of Cellular Uptake: 4 hours, 37° C., average of two experiments
Experimental: HeLa S3, human epithelioid cervical carcinoma cells of approximately 50% confluency were treated with concentrations varying from 250 nM to 50 μM of each of the molecular transporters 10, 11, 12, 13, and 41 at 37° C. The molecular transporters were directly added to the media (Dulbecco's modified eagle medium containing 10% fetal bovine serum and 1× antibiotic-antimycotic), and the delivery to the cells was visualized by microscopy.
Quantification of the uptake of the molecular transporter into the cells was performed by flow cytometry 4 hours after treatment. Adherent cells, grown on 6 well plates, were displaced with trypsin, after which the cells were washed with phosphate-buffered saline (PBS). The final cell pellet was collected by centrifugation and resuspended in PBS to a concentration of approximately 1×10^6 cells/mL. A minimum of 20,000 cell events were counted and analyzed using the FACSCalibur and CellQuest brand software (BD Biosciences, San Jose, Calif.).

HeLa S3 cells = test: Sulphorhodamine B (SRB) cytotoxicity assay; format: cell-based, human; conditions: 4 hour treatment, concentrations up to 50 μM
Experimental: The cells were treated with varying concentrations (250 nM to 50 μM) of compound 12 for 4 hours at 37° C. The cells were fixed with trichloroacetic acid and were then subsequently stained with SRB dye. The cells were washed with water, and the SRB-bound complexes were solubilized in Tris buffer. The absorbance at 572 nm was measured in each sample.

[2] = Solubility in H2O noted on isolation; format: physicochemical; conditions: isolated salt

SMILES | saturation of uptake reached with increasing concentration [1] | delivery to HeLa S3 cells (in words) [1] | Percentage of Cellular Uptake ([1]; 250 nM) [%] | Percentage of Cellular Uptake ([1]; 500 nM) [%] | Percentage of Cellular Uptake ([1]; 1 μM) [%] | Percentage of Cellular Uptake ([1]; 5 μM) [%] | Percentage of Cellular Uptake ([1]; 10 μM) [%] | Percentage of Cellular Uptake ([1]; 25 μM) [%] | Percentage of Cellular Uptake ([1]; 50 μM) [%] | cytotoxic effect / cell lysis (HeLa S3 cells) | solubility in H2O [2]
Cl.Cl.Cl.N=C(N)NCCNC(=O)CCOCC(COCCC(=O)NCCNC(=N)N)(COCCC(=O)NCCNC(=N)N)NC(=O)CCNC(=S)Nc1ccc(-c2c3ccc(=O)cc-3oc3cc(O)ccc23)c(C(=O)O)c1 (stereo not shown) [Compound 10] | approximately 100% | – | – | – | – | – | – | – | – | – | –
N=C(N)NCCNC(=O)CCCCCNC(=O)CCNC(=S)Nc1ccc(-c2c3ccc(=O)cc-3oc3cc(O)ccc23)c(C(=O)O)c1 [Compound 41, 5-(3-{2-[5-(2-Guanidinoethylcarbamoyl)-pentylcarbamoyl]-ethyl}-thioureido)-2-(6-hydroxy-3-oxo-3H-xanthen-9-yl)-benzoic acid] | approximately 100% | – | – | – | – | – | – | – | – | – | –
Cl.Cl.Cl.Cl.Cl.Cl.Cl.Cl.Cl.N=C(N)NCCNC(=O)CCOCC(COCCC(=O)NCCNC(=N)N)(COCCC(=O)NCCNC(=N)N)NC(=O)CCNC(=O)CCOCC(COCCC(=O)NCCC(=O)NC(COCCC(=O)NCCNC(=N)N)(COCCC(=O)NCCNC(=N)N)COCCC(=O)NCCNC(=N)N)(COCCC(=O)NCCC(=O)NC(COCCC(=O)NCCNC(=N)N)(COCCC(=O)NCCNC(=N)N)COCCC(=O)NCCNC(=N)N)NC(=O)CCNC(=S)Nc1ccc(-c2c3ccc(=O)cc-3oc3cc(O)ccc23)c(C(=O)O)c1 (stereo not shown) [Compound 12] | approximately 100% | excellent delivery | 9.07 | 8.71 | 9.17 | 63.52 | 91.74 | 98.61 | 99.75 | no cytotoxic effect and did not cause cell lysis | –
Cl.Cl.Cl.Cl.Cl.Cl.Cl.Cl.Cl.Cl.Cl.Cl.N=C(N)NCCNC(=O)CCOCC(COCCC(=O)NCCNC(=N)N)(COCCC(=O)NCCNC(=N)N)NC(=O)CCNC(=O)CCOCC(COCCC(=O)NCCC(=O)NC(COCCC(=O)NCCNC(=N)N)(COCCC(=O)NCCNC(=N)N)COCCC(=O)NCCNC(=N)N)NC(=O)CCNC(=O)CCOCC(COCCC(=O)NCCC(=O)NC(COCCC(=O)NCCC(=O)NC(COCCC(=O)NCCNC(=N)N)(COCCC(=O)NCCNC(=N)N)COCCC(=O)NCCNC(=N)N)COCCC(=O)NCCC(=O)NC(COCCC(=O)NCCNC(=N)N)(COCCC(=O)NCCNC(=N)N)COCCC(=O)NCCNC(=N)N)NC(=O)CCNC(=S)Nc1ccc(-c2c3ccc(=O)cc-3oc3cc(O)ccc23)c(C(=O)O)c1 (stereo not shown) [Compound 13] | approximately 100% | excellent delivery | 3.22 | 6.59 | 11.91 | 90.79 | 96.77 | 99.11 | 99.82 | – | barely soluble in H2O
Cl.Cl.Cl.Cl.Cl.Cl.N=C(N)NCCNC(=O)CCOCC(COCCC(=O)NCCNC(=N)N)(COCCC(=O)NCCNC(=N)N)NC(=O)CCNC(=O)c1cc(C(=O)NCCNC(=O)CCNC(=S)Nc2ccc(-c3c4ccc(=O)cc-4oc4cc(O)ccc34)c(C(=O)O)c2)cc(C(=O)NCCC(=O)NC(COCCC(=O)NCCNC(=N)N)(COCCC(=O)NCCNC(=N)N)COCCC(=O)NCCNC(=N)N)c1 (stereo not shown) [Compound 11] | approximately 100% | excellent delivery | 4.56 | 7.52 | 11.74 | 94.54 | 98.55 | 99.79 | 99.87 | – | –
